Laboratory results published in paper PMC7221574 (Molecules, 2020).
Where “and” joins values, the source holds several entries; their conditions need not be identical. Equal entries are not always repeated. Where two headings read alike, the source gives them in different places.

Columns and labels:
A549 = assay: In vitro antiproliferative activity, SRB assay, A549; assay type: cell-based, human; conditions: for IC50: human lung adenocarcinoma, 72 h, SRB, mean ± SD; for selectivity index (SI) A549: SI = (IC50 BALB/3T3)/(IC50 A549)
Experimental: (§1) The A549 cell line was purchased from the European Collection of Authenticated Cell Cultures (ECACC, Salisbury, UK). The MCF-7, LoVo and LoVo/DX cell lines was purchased from American Type Culture Collection (ATCC, Manassas, VA, USA). All the cell lines are maintained in the Institute of Immunology and Experimental Therapy (IIET), Wroclaw, Poland.
(§2) Human lung adenocarcinoma cell line was cultured in a mixture of OptiMEM and RPMI 1640 (1:1) medium (IIET, Wroclaw, Poland), supplemented with 5% fetal bovine serum HyClone (GE Healthcare, USA) and 2 mM L-glutamine (Sigma-Aldrich, Germany). Human breast adenocarcinoma cell line was cultured in a mixture of Eagle medium (IIET, Wroclaw, Poland), supplemented with 10% fetal bovine serum, 2 mM L-glutamine, 8 μg/mL insulin and 1% amino acids (Sigma-Aldrich, Germany). Human colon adenocarcinoma cell lines were cultured in a mixture of OptiMEM and RPMI 1640 (1:1) medium (IIET, Wroclaw, Poland), supplemented with 5% fetal bovine serum HyClone (GE Healthcare, USA), 2 mM L-glutamine, 1 mM sodium pyruvate (Sigma-Aldrich, Germany) and 10 μg/100 mL doxorubicin (Accord) for LoVo/DX. Murine embryonic fibroblast cells were cultured in Dulbecco medium (Gibco), supplemented with 10% fetal bovine serum (GE Healthcare, USA) and 2 mM L-glutamine (Sigma-Aldrich, Germany). All culture media contained antibiotics: 100 U/mL penicillin (Polfa-Tarchomin, Poland) and 0.1 mg/mL streptomycin (Sigma Aldrich, Germany). All cell lines were cultured during entire experiment in humid atmosphere at 37 °C and 5% CO2.
(§3) All cell lines were exposed to each tested agent at different concentrations in the range 100–0.001 μg/mL for 72 h. The cells were also exposed to the reference drug cisplatin (Teva Pharmaceuticals, Poland) and doxorubicin (Accord Healthcare Limited, UK). Additionally, all cell lines were exposed to DMSO (solvent used for tested compounds) (POCh, Poland) at concentrations corresponding to those present in dilutions of tested agents. After 72 h sulforhodamine B assay (SRB) was performed.
(§4) After 72 h of incubation with the tested compounds, the cells were fixed in situ by gently adding of 50 μL per well of cold 50% trichloroacetic acid TCA (POCh, Poland) and were incubated at room temperature for one hour. Then the wells were washed four times with water and air dried. Next, 50 μL of 0.1% solution of sulforhodamine B (Sigma-Aldrich, Germany) in 1% acetic acid (POCh, Poland) were added to each well and were incubated at room temperature for 0.5 h. After incubation time, unbound dye was removed by washing plates four times with 1% acetic acid, whereas the stain bound to cells was solubilized with 150 μL of 10 mM Tris base (Sigma-Aldrich, Germany). Absorbance of each solution was read from a Synergy H4 Hybrid Multi-Mode Microplate Reader (BioTek Instruments, USA) at the 540 nm wavelength.

MCF-7 = assay: In vitro antiproliferative activity, SRB assay, MCF-7; assay type: cell-based, human; conditions: for IC50: human breast adenocarcinoma, 72 h, SRB, mean ± SD; for selectivity index (SI) MCF-7: SI = (IC50 BALB/3T3)/(IC50 MCF-7)
Experimental: as §1, §2, §3, §4

LoVo = assay: In vitro antiproliferative activity, SRB assay, LoVo; assay type: cell-based, human; conditions: for IC50: human colon adenocarcinoma, 72 h, SRB, mean ± SD; for selectivity index (SI) LoVo: SI = (IC50 BALB/3T3)/(IC50 LoVo)
Experimental: as §1, §2, §3, §4

LoVo/DX = assay: cells; assay type: cell-based, human; conditions: for RI (resistance index): RI = (IC50 for LoVo/DX)/(IC50 for LoVo); for IC50: 72 h, read-out: IC50 LoVo/DX
Experimental: as §1, §2, §3, §4

BALB/3T3 = assay: In vitro antiproliferative activity, SRB assay, normal fibroblasts BALB/3T3; assay type: cell-based, murine; conditions: for IC50: normal murine embryonic fibroblasts, 72 h, SRB, mean ± SD
Experimental: as §1, §2, §3, §4

Compound | IC50 (A549) | IC50 (MCF-7) | IC50 (LoVo) | RI (resistance index) (LoVo/DX) | IC50 (LoVo/DX; doxorubicin-resistant colon adenocarcinoma subline, SRB, mean ± SD) | IC50 (BALB/3T3) | IC50 (A549; Homo sapiens, A549, 72 h) | IC50 (MCF-7; Homo sapiens, MCF7, 72 h) | IC50 (LoVo; Homo sapiens, LoVo) | IC50 (LoVo/DX; Homo sapiens, LoVo/DX) | IC50 (BALB/3T3; Mus musculus, BALB/3T3) | selectivity index (SI) LoVo (LoVo) | selectivity index (SI) A549 (A549) | selectivity index (SI) MCF-7 (MCF-7) | selectivity index (SI), cancer cell lines not named at the place (BALB/3T3; SI = (IC50 BALB/3T3)/(IC50 respective cancerous cell line), range over several lines) | times more potent than unmodified colchicine 1 (LoVo/DX; LoVo/DX line) | IC50 (LoVo/DX; Homo sapiens, LoVo/DX, doxorubicin-resistant colon adenocarcinoma subline, SRB, mean ± SD)
N.N.[Cl][Pt][Cl] [Cisplatin, reference compound] | 5740 ± 968 nM | 7140 ± 1220 nM | 7080 ± 1600 nM | 1.2 | 8340 ± 1120 nM | 5665 ± 31.8 nM | – | – | – | – | – | – | – | – | – | – | –
CNc1ccc2c(cc1=O)[C@@H](NC(C)=O)CCc1cc(OC)c(OC)c(OC)c1-2 [Compound 2, 10-methylamino-10-demethoxycolchicine] | – | – | – | 63.0 | – | – | 10.8 ± 1.3 nM | 8.6 ± 1.3 nM | 4.3 ± 1.3 nM | 271 ± 99.9 nM | 10.8 ± 1.3 nM | – | – | – | – | – | –
CNc1ccc2c(cc1=O)[C@@H](N)CCc1cc(OC)c(OC)c(OC)c1-2 [Compound 3, N-deacetyl-10-methylamino-10-demethoxycolchicine] | 16.9 ± 2.8 nM | 19.7 ± 1.7 nM | 14 ± 1.7 nM | 9.2 | – | – | < 20 nM | < 20 nM | < 20 nM | 129 ± 11.8 nM | 19.7 ± 7 nM | – | – | – | – | – | –
CCC(=O)NC1CCc2cc(OC)c(OC)c(OC)c2-c2ccc(NC)c(=O)cc21 (centres unmarked) [Compound 4] | – | – | – | 28.0 | – | – | 14.6 ± 2.4 nM | 14.6 ± 1.5 nM | 9.7 ± 1.5 nM | 272 ± 104 nM | 19.4 ± 4.1 nM | – | – | – | – | – | –
CCCC(=O)N[C@H]1CCc2cc(OC)c(OC)c(OC)c2-c2ccc(NC)c(=O)cc21 [Compound 5] | – | – | – | 20.2 | – | – | 14.1 ± 2.4 nM | 14.1 ± 1.4 nM | 9.6 ± 0.5 nM | 195 ± 51.9 nM | 16.4 ± 3.5 nM | – | – | – | – | – | –
CCCCC(=O)NC1CCc2cc(OC)c(OC)c(OC)c2-c2ccc(NC)c(=O)cc21 (centres unmarked) [Compound 6] | – | – | – | 15.0 | – | – | 13.6 ± 1.4 nM | 15.9 ± 6.6 nM | 6.8 ± 3.9 nM | 102 ± 20.7 nM | 13.6 ± 2.3 nM | – | – | – | – | – | –
CCCCCCCCCCCCCCCC(=O)N[C@H]1CCc2cc(OC)c(OC)c(OC)c2-c2ccc(NC)c(=O)cc21 [Compound 7] | – | – | – | 39.0 | – | – | 614 ± 194 nM | 465 ± 187 nM | 62.4 ± 16.9 nM | 2440 ± 923 nM | 546 ± 104 nM | over 6 | – | – | – | – | –
CNc1ccc2c(cc1=O)C(NC(=O)C(C)C)CCc1cc(OC)c(OC)c(OC)c1-2 (centres unmarked) [Compound 8] | – | – | – | 24.3 | – | – | 11.7 ± 1.4 nM | 18.8 ± 9.9 nM | 7 ± 1.4 nM | 171 ± 41.3 nM | 28.1 ± 10.8 nM | 1.5–4.0 | 1.5–4.0 | 1.5–4.0 | – | – | –
CNc1ccc2c(cc1=O)C(NC(=O)CCl)CCc1cc(OC)c(OC)c(OC)c1-2 (centres unmarked) [Compound 9] | – | – | – | 35.2 | – | – | 11.6 ± 2.8 nM | 9.2 ± 1.4 nM | 1.8 ± 0.4 nM | 62.4 ± 6.7 nM | 11.6 ± 2.3 nM | over 6 | – | – | – | – | –
CNc1ccc2c(cc1=O)[C@@H](NC(=O)C(Cl)Cl)CCc1cc(OC)c(OC)c(OC)c1-2 [Compound 10] | – | – | – | 25.8 | – | – | 8.6 ± 1.3 nM | 8.6 ± 1.2 nM | 1.5 ± 0.5 nM | 38.5 ± 21.6 nM | 10.7 ± 1.3 nM | over 6 | – | – | – | – | –
CNc1ccc2c(cc1=O)C(NC(=O)CCC(F)(F)F)CCc1cc(OC)c(OC)c(OC)c1-2 (centres unmarked) [Compound 11, 4,4,4-trifluorobutyric amide of 10-N-methylaminocolchicine] | 14.6 ± 2.1 nM | 12.7 ± 0.4 nM | 10.4 ± 1.3 nM | 27.8 | – | – | 10.4 to 14.6 nM | 10.4 to 14.6 nM | 10.4 to 14.6 nM | 290 ± 165 nM | 81.3 ± 20.4 nM | higher than 5 | higher than 5 | higher than 5 | 5.6–7.8 | – | –
CNc1ccc2c(cc1=O)[C@@H](NC(=O)c1ccccc1)CCc1cc(OC)c(OC)c(OC)c1-2 [Compound 12] | – | – | – | 11.8 | – | – | 13 ± 1.3 nM | 13 ± 1.3 nM | 8.5 ± 0.4 nM | 99.9 ± 10 nM | 13 ± 3.3 nM | – | – | – | – | – | –
CNc1ccc2c(cc1=O)[C@@H](NC(=O)c1ccccc1Cl)CCc1cc(OC)c(OC)c(OC)c1-2 [Compound 13] | – | – | – | 14.0 | – | – | 6.3 ± 3.2 nM | 9.2 ± 0.8 nM | 0.7 ± 0.1 nM | 9.6 ± 3.3 nM | 6.2 ± 1.6 nM | over 6 | – | – | – | approx. 170 times | –
CNc1ccc2c(cc1=O)[C@@H](NC(=O)c1cccc(F)c1)CCc1cc(OC)c(OC)c(OC)c1-2 [Compound 14] | – | – | – | 12.0 | – | – | 10.7 ± 0.6 nM | 12.6 ± 1.3 nM | 8.6 ± 0.8 nM | 102 ± 24.9 nM | 12.6 ± 2.1 nM | – | – | – | – | – | –
CNc1ccc2c(cc1=O)[C@@H](NC(=O)c1cccnc1)CCc1cc(OC)c(OC)c(OC)c1-2 [Compound 15] | – | – | – | 76.8 | – | – | 36.8 ± 12.1 nM | 13 ± 2.2 nM | 10.8 ± 1.3 nM | 832 ± 293 nM | 43.3 ± 29.7 nM | – | – | – | – | – | –
CNc1ccc2c(cc1=O)[C@@H](NC(=O)c1ccncc1)CCc1cc(OC)c(OC)c(OC)c1-2 [Compound 16] | – | – | – | 87.4 | – | – | 17.3 ± 3.7 nM | 12.8 ± 0.9 nM | 10.8 ± 1.3 nM | 947 ± 260 nM | 52 ± 29.3 nM | – | – | – | – | – | –
CNc1ccc2c(cc1=O)C(NS(N)(=O)=O)CCc1cc(OC)c(OC)c(OC)c1-2 (centres unmarked) [Compound 17] | – | – | – | 306.0 | – | – | 56.6 ± 14.7 nM | 10.3 ± 3.9 nM | 21.1 ± 17.5 nM | 6470 ± 264 nM | 100 ± 24.1 nM | – | – | ~10 and 9.8 | – | – | –
CNc1ccc2c(cc1=O)C(NS(=O)(=O)N(C)C)CCc1cc(OC)c(OC)c(OC)c1-2 (centres unmarked) [Compound 18] | 10.6 ± 0.6 nM | 15.5 ± 1.7 nM | 9.3 ± 1.1 nM | 57.8 | – | – | 9.3 to 15.5 nM | 9.3 to 15.5 nM | 9.3 to 15.5 nM | 540 ± 107 nM | 14.2 ± 13.2 nM | – | – | – | – | – | –
C=CS(=O)(=O)NC1CCc2cc(OC)c(OC)c(OC)c2-c2ccc(NC)c(=O)cc21 (centres unmarked) [Compound 19] | – | – | – | 36.7 | – | – | 11.4 ± 1.7 nM | 13 ± 4.3 nM | 8.4 ± 0.7 nM | 307 ± 145 nM | 8.3 ± 3.8 nM | – | – | – | – | – | –
CNc1ccc2c(cc1=O)C(NS(=O)(=O)CCN1CCOCC1)CCc1cc(OC)c(OC)c(OC)c1-2 (centres unmarked) [Compound 20] | – | – | – | 165.4 | – | – | 800 ± 130 nM | 150 ± 25.3 nM | 268 ± 94 nM | 44400 ± 23900 nM | 991 ± 280 nM | – | – | 6.6 | – | – | –
CNc1ccc2c(cc1=O)[C@@H](NS(=O)(=O)c1ccc(C(F)(F)F)cc1)CCc1cc(OC)c(OC)c(OC)c1-2 [Compound 21] | – | – | – | 83.3 | – | – | 85.5 ± 5.4 nM | 134 ± 41.5 nM | 73.5 ± 15.7 nM | 6120 ± 825 nM | 87.6 ± 13.5 nM | – | – | – | – | – | –
COc1cccc2c1C(=O)c1c(O)c3c(c(O)c1C2=O)C[C@@](O)(C(=O)CO)C[C@@H]3O[C@H]1C[C@H](N)[C@H](O)[C@H](C)O1 [Doxorubicin, reference compound] | – | – | – | 87.9 | – | – | 142 ± 46 nM | 204 ± 47.8 nM | 99.4 ± 41 nM | – | 149 ± 127 nM | – | – | – | – | – | 8730 ± 2540 nM
